{"source": "patent US9550808B2", "about": "“Peptide inhibitors of nicotinic acetylcholine receptor” (LIMITED LIABILITY COMPANY SYNEURO, priority 2013, dated 2017)", "key": {"[1]": {"target": "T1, muscle-type nicotinic acetylcholine receptor (α1, β1, δ and ε-subunits) (Homo sapiens, UniProt P02708+Q04844+Q07001)", "T1 construct": "expressed in transfected cells; host or cells: Xenopus laevis oocytes (nuclear injection of plasmids, CMV promoter)", "T1 sequence (P02708 21-457)": "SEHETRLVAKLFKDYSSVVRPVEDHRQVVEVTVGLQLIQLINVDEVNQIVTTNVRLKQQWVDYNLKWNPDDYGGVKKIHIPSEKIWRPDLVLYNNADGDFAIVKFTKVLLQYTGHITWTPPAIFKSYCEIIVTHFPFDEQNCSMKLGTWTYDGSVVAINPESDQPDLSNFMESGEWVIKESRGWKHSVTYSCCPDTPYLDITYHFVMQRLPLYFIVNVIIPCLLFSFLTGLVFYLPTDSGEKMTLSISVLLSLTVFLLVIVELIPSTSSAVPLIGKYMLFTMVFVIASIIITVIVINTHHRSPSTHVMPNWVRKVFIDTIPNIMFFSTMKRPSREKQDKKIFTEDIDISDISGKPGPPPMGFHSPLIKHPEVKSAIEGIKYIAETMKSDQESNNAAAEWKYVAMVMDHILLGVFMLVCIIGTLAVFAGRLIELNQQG", "T1 sequence (Q04844 21-493)": "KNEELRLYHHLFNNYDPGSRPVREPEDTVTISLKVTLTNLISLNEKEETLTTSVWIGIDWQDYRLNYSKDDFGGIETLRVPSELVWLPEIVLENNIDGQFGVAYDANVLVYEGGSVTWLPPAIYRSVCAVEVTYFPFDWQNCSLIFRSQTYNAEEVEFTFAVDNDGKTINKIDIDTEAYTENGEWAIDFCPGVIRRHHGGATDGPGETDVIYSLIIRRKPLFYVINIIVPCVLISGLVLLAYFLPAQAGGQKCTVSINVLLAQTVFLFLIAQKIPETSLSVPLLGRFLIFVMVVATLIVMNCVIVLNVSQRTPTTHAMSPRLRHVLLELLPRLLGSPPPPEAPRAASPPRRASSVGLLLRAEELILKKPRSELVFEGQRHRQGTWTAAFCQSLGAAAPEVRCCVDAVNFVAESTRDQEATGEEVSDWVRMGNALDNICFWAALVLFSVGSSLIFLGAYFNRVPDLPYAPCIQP", "T1 sequence (P11230 24-501, further chain)": "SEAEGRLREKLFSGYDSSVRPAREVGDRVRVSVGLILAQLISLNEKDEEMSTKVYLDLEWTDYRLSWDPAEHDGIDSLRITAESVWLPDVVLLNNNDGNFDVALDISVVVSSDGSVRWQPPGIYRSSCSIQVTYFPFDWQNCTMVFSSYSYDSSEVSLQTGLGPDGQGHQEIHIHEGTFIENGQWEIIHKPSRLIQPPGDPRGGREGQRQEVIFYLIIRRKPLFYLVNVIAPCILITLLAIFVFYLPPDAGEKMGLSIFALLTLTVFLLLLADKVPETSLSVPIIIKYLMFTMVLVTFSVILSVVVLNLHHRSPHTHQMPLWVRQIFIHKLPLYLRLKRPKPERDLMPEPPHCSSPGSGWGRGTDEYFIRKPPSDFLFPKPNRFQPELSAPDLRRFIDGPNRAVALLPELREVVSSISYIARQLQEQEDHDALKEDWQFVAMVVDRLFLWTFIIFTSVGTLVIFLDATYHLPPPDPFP", "T1 sequence (Q07001 22-517)": "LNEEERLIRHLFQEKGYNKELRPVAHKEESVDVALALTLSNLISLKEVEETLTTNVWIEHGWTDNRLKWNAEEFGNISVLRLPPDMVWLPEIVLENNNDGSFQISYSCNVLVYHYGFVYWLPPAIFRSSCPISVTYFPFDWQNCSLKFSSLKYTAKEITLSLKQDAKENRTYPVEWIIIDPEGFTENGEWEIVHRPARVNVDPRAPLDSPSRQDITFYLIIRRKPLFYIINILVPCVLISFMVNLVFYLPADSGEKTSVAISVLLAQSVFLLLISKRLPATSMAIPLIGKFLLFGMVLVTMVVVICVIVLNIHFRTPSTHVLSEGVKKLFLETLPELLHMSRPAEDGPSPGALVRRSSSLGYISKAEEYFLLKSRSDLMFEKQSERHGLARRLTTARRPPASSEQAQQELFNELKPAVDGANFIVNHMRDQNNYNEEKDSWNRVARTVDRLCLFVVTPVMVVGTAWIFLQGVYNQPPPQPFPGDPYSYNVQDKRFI", "experiment": "Inhibition of acetylcholine-induced current through muscle-type nAChR expressed in Xenopus laevis oocytes (two-electrode voltage clamp)", "type": "cell-based", "conditions": "for inhibiting activity towards the muscle receptor, retrosequences compared with initial Az3 and [Tyr2]Az3: 1 mM"}, "male Balb mice": {"test_system": "male Balb mice", "experiment": "Acute toxicity in mice (intraperitoneal and per os)", "type": "in vivo", "conditions": "for acute toxicity after intraperitoneal administration: male Balb mice, 1, 3, 10 and 30 mg/kg i.p.; for acute toxicity per os (administration into the stomach): male Balb mice, 2.5, 10, 40, 160 mg/kg per os", "protocol": "Estimation of acute toxicity (LD50) after intraperitoneal administration of peptide H-Trp-Trp-Pro-Lys-Pro-OH (SEQ ID NO: 1) was carried out on 40 male Balb mice weighting 20-23 g, separated into five equal groups. Mice were intraperitoneally injected with the peptide at doses of 1 mg/kg, 3 mg/kg, 10 mg/kg and 30 mg/kg in 0.2 ml sterile 0.9% NaCl solution. Control animals were injected with same volume of 0.9% NaCl.\nInvestigation of acute toxicity (LD50 per os) after administration of the peptide directly into a stomach by a special catheter was conducted on 40 male Balb mice weighting 20-23 g. Animals were randomly divided into 5 groups. The drug was applied at doses 2.5 mg/kg, 10 mg/kg, 40 mg/kg, 160 mg/kg in 0.2 ml sterile solution of 0.9%. Control animals were injected with the same volume of 0.9% NaCl."}, "mimic wrinkles": {"test_system": "mimic wrinkles", "conditions": "cited from earlier work"}, "[2]": {"conditions": "cream containing 5% Vialox, 28-day application"}}, "note": "Non-standard residues stand in square brackets, D forms with d. Residues, ends and D or L forms follow the SMILES beside them. *: point of attachment. Dab = NCC[C@H](N)C(=O)O; NHBn = c1ccc(CN*)cc1; βAla = NCCC(=O)O", "data": [{"molecule": "H-WWPKP-OH [SEQ ID NO: 1, H-Trp-Trp-Pro-Lys-Pro-OH]", "values": [{"measurement": "inhibition of acetylcholine induced currents, comparison of overlapping pentapeptide fragments of azemiopsin", "setting": "[1]; 150 μg/ml (FIG. 2)", "result": "most active"}, {"measurement": "acute toxicity after intraperitoneal administration", "setting": "male Balb mice", "result": "did not reveal any toxic effects"}, {"measurement": "acute toxicity after intraperitoneal administration", "setting": "male Balb mice; listed as SEQ ID NO:1", "result": "does not exhibit toxicity"}, {"measurement": "acute toxicity per os (administration into the stomach)", "setting": "male Balb mice", "result": "no toxic effect was observed"}, {"measurement": "acute toxicity per os (administration into the stomach)", "setting": "male Balb mice; listed as SEQ ID NO:1", "result": "does not exhibit toxicity"}]}, {"molecule": "DNWWPKPPHQGPRPPRPRPKP [azemiopsin, reference compound]", "values": [{"measurement": "blockage of the muscle receptor activity", "setting": "[1]; 50 μM, 20 μM acetylcholine (FIG. 1)", "result": "Complete blockage"}]}, {"molecule": "PKPYW", "values": [{"measurement": "inhibiting activity towards the muscle receptor, retrosequences compared with initial Az3 and [Tyr2]Az3", "setting": "[1]", "result": "reduced"}]}, {"molecule": "PKPWW", "values": [{"measurement": "inhibiting activity towards the muscle receptor, retrosequences compared with initial Az3 and [Tyr2]Az3", "setting": "[1]", "result": "reduced"}]}, {"molecule": "H-Gly-Pro-Arg-Pro-Ala-NH2 (H-GPRPA-NH2) [Vialox]", "values": [{"measurement": "reduction of skin roughness", "setting": "mimic wrinkles; [2]", "result": "up to 47%"}, {"measurement": "reduction of wrinkle size", "setting": "mimic wrinkles; [2]", "result": "up to 49%"}]}, {"molecule": "H-WYPKP-NH2 [SEQ ID NO: 42, H-Trp-Tyr-Pro-Lys-Pro-NH2]", "values": [{"measurement": "IC50", "setting": "[1]", "result": 23, "unit": "µM"}, {"measurement": "times more functionally active than commercial analogue Syn-Ake", "setting": "[1]; ratio of IC50 values", "result": "eight"}]}, {"molecule": "NCCC(=O)N1CCC[C@H]1C(=O)N[C@@H](CCN)C(=O)NCc1ccccc1", "note": "[Syn-Ake, H-β-Ala-Pro-Dab-NHBzl] (H-[βAla]-Pro-[Dab]-NHBn)", "values": [{"measurement": "IC50", "setting": "[1]", "result": 180, "unit": "µM"}, {"measurement": "decrease of depth of wrinkles on foreheads", "setting": "mimic wrinkles; cream containing 4% Syn-Ake, 28-day application, volunteers", "result": "up to 52%"}]}, {"molecule": "H-Tyr-D-Ala-Gly-Phe-Leu-OH [Leuphasyl]", "values": [{"measurement": "enhancement of argireline effect", "setting": "mimic wrinkles; Leuphasyl in combination with argireline", "result": 1.5, "unit": "fold"}]}, {"molecule": "Ac-Glu-Glu-Met-Gln-Arg-Arg-NH2 (Ac-EEMQRR-NH2) [argireline, cosmetic hexapeptide repeating a fragment of SNAP 25]", "values": [{"measurement": "decrease in the depth of mimic wrinkles", "setting": "mimic wrinkles; cream containing 10% argireline, topical 30-day use, volunteers", "result": 30, "unit": "%"}]}]}
